The results in this text go back to ChEMBL document CHEMBL3046152, “Synthesis and fungicide activity of 2,3-dihydroimidazo [2,1-b]thiazole-5-carboxamides” (1995).

Holding throughout (type): functional
The test system of test [1] is Oculimacula yallundae. As to the kind of experiment: Fungicidal activity against Oculimacula yallundae inoculated in 24 hr compound-treated plant foliage assessed as disease control at 40 ppm measured after 7 days.
The test system of test [2] is Parastagonospora nodorum. Put plainly: Fungicidal activity against Phaeosphaeria nodorum inoculated in 24 hr compound-treated plant foliage assessed as disease control at 40 ppm measured after 7 days.
In test [3] the test system is Oculimacula yallundae. Put plainly: Fungicidal activity against Oculimacula yallundae inoculated in 24 hr compound-treated plant foliage assessed as disease control at 200 ppm measured after 7 days.
In test [4] the test system is Parastagonospora nodorum. As to the kind of experiment: Fungicidal activity against Phaeosphaeria nodorum inoculated in 24 hr compound-treated plant foliage assessed as disease control at 200 ppm measured after 7 days.
In test [5] the test system is Oculimacula yallundae. As to the kind of experiment: Fungicidal activity against Oculimacula yallundae inoculated in 24 hr compound-treated plant foliage assessed as disease control at 20 ppm measured after 7 days.
In test [6] the test system is Parastagonospora nodorum. Put plainly: Fungicidal activity against Phaeosphaeria nodorum inoculated in 24 hr compound-treated plant foliage assessed as disease control at 20 ppm measured after 7 days.

As for `O=C(Nc1c(Cl)cccc1Cl)c1c(-c2ccccc2)nc2n1CCS2(=O)=O`, the Activity in the test with Oculimacula yallundae [1] was found to be 9%; in the test on Parastagonospora nodorum [2] it was 23%.
Turning to `O=C(c1c(Cl)nc2n1CCS2(=O)=O)N1CCCCC1`, the Activity with Oculimacula yallundae [3] was determined as 0%; in the test on Parastagonospora nodorum [4], 23%.
`Cc1nc2n(c1C(=O)Nc1ccccn1)CCS2(=O)=O`: the Activity in the test with Oculimacula yallundae [3] amounted to 100%; in the test with Parastagonospora nodorum [4], 0%.
With `O=C(c1c(Cl)nc2n1CCS2(=O)=O)N1CCOCC1`, the Activity in the test with Oculimacula yallundae [1] was determined as 0%; in the test on Parastagonospora nodorum [2], 23%.
As for `O=C(Nc1ccccn1)c1c(Cl)nc2n1CCS2(=O)=O`, the Activity was determined as 100% in the test with Oculimacula yallundae [3] and 0% with Parastagonospora nodorum [4].
Take `Cc1nc2n(c1C(=O)Nc1c(Cl)cccc1Cl)CCS2(=O)=O`: the Activity in the test on Oculimacula yallundae [1] is listed as 0%; in the test on Parastagonospora nodorum [2], 23%.
Consider `O=C(Nc1c(Cl)cccc1Cl)c1c(Cl)nc2n1CCS2(=O)=O`, for which the figures for the Activity in the test on Oculimacula yallundae [1] and in the test with Parastagonospora nodorum [2] were 39% and 0%, respectively.
Take `Cc1nc2n(c1C(=O)Nc1ccccc1)CCS2(=O)=O`: the figures for the Activity in the test on Oculimacula yallundae [3] and with Parastagonospora nodorum [4] were 54% and 23%, respectively.
With `C[Si](Cn1cncn1)(c1ccc(F)cc1)c1ccc(F)cc1` [FLUSILAZOLE], the results for the Activity in the test on Oculimacula yallundae [5] and with Parastagonospora nodorum [6] were 98% and 99%, respectively.
Regarding `CCNC(=O)c1c(Cl)nc2n1CCS2(=O)=O`, the Activity with Oculimacula yallundae [1] worked out at 39%; with Parastagonospora nodorum [2] it was 23%.
In the case of `Cc1nc2n(c1C(=O)N1CCCCC1)CCS2(=O)=O`, the Activity in the test with Oculimacula yallundae [3] was 0%; with Parastagonospora nodorum [4] it was 23%.
In the same order, the values of `CN(C(=O)c1c(Cl)nc2n1CCS2(=O)=O)c1ccccc1` are 39% and 0%.
